Measurements: article PMC9143880, “Improving Antimicrobial Activity and Physico-Chemical Properties by Isosteric Replacement of 2-Aminothiazole with 2-Aminooxazole” (Pharmaceuticals, 2022)
Values after ≈ are worked out from the molar mass of the structure shown. Read-outs that look alike come from different tables or passages of the source.

Tests used:
[1] = test system: Candida albicans CCM 8320 (ATCC 24433); experiment: Antifungal microdilution broth (EUCAST); conditions: Candida albicans, 24 h, read-out: MIC CA
[2] = test system: Staphylococcus aureus subsp. aureus (MRSA) CCM 4750 (ATCC 43300); experiment: Antibacterial microdilution broth (EUCAST); assay type: cell-based; conditions: Staphylococcus aureus; 24h incubation; read-out: MIC MRSA
[3] = test system: Candida tropicalis CCM 8264 (ATCC 750); experiment: Antifungal microdilution broth (EUCAST); conditions: Candida tropicalis, 24 h, read-out: MIC CT
[4] = test system: M. avium DSM 44156 (ATCC 25291); experiment: Antimycobacterial MIC, microdilution broth / resazurin; assay type: cell-based, Mycobacterium avium; conditions: for MIC: Mycobacterium avium, read-out: MIC M. avium
[5] = test system: Staphylococcus aureus subsp. aureus CCM 4223 (ATCC 29213); experiment: Antibacterial microdilution broth (EUCAST); assay type: cell-based; conditions: Staphylococcus aureus; 24h incubation; read-out: MIC SA
[6] = test system: Pseudomonas aeruginosa CCM 3955 (ATCC 27853); experiment: Antibacterial microdilution broth (EUCAST); assay type: cell-based; conditions: Pseudomonas aeruginosa; 72h incubation; read-out: MIC PA
[7] = test system: Candida krusei CCM 8271 (ATCC 6258); experiment: Antifungal microdilution broth (EUCAST); conditions: Pichia kudriavzevii, 24 h, read-out: MIC CK
[8] = test system: Mycobacterium tuberculosis H37Ra ITM-M006710 (ATCC 9431); experiment: Antimycobacterial MIC, microdilution broth / Alamar Blue (resazurin); assay type: cell-based; conditions: Mycobacterium tuberculosis, 120 h, Middlebrook 7H9, resazurin after 120 h; read-out: Mtb H37Ra MIC
[9] = test system: Trichophyton interdigitale CCM 8377 (ATCC 9533); experiment: Antifungal microdilution broth (EUCAST); conditions: Trichophyton interdigitale, 72 h, read-out: MIC TI
[10] = test system: Lichtheimia corymbifera CCM 8077; experiment: Antifungal microdilution broth (EUCAST); conditions: Lichtheimia corymbifera, CCM8077, 24 h, read-out: MIC LC
[11] = test system: M. aurum DSM 43999 (ATCC 23366); experiment: Antimycobacterial MIC, microdilution broth / resazurin; assay type: cell-based; conditions: Mycolicibacterium aurum; resazurin after 72 h; read-out: MIC M. aurum
[12] = test system: Acinetobacter baumannii DSM 30007 (ATCC 19606); experiment: Antibacterial microdilution broth (EUCAST); assay type: cell-based; conditions: Acinetobacter baumannii; 24h incubation; read-out: MIC AB
[13] = test system: M. kansasii DSM 44162 (ATCC 12478); experiment: Antimycobacterial MIC, microdilution broth / resazurin; assay type: cell-based; conditions: Mycobacterium kansasii, read-out: MIC M. kansasii
[14] = test system: Escherichia coli CCM 3954 (ATCC 25922); experiment: Antibacterial microdilution broth (EUCAST); assay type: cell-based; conditions: Escherichia coli; 24h incubation; read-out: MIC EC
[15] = RP-UHPLC lipophilicity parameter log k’w; assay type: physicochemical; conditions: for log k’w: RP-UHPLC, acetonitrile/water, log k extrapolated to 0% acetonitrile; for logkw: experimental lipophilicity parameter
Excerpt: Lipophilicity and water solubility of the drug candidates are important parameters as they are often directly related to their ADME properties in the organism. Lipophilicity is usually expressed as the logarithm of the partition coefficient in n-octanol/water (log P). Due to its laborious determination, especially in the HTS screening, other experimental methods such as RP-HPLC log k’w or purely computational approaches such as Clog P were proposed and have been established as reasonable estimators of true lipophilicity. To investigate the changes in lipophilicity upon introduction of oxazole in the title compounds, we determined the log k’w of all derivatives and compared respective values among the pairs.
The log k of the synthesized compounds was measured using the same instrument (single measurement per concentration), software, and column as was used in the purity evaluation. Working solutions were diluted as described above for purity determination. The log k parameter was calculated after the UHPLC measurements using isocratic mode with mobile phase acetonitrile (B)/water (A) in a set of concentrations of 40, 45, 50% and 20, 30, 40% B for subtype I and subtype II, respectively.

[16] = test system: Staphylococcus epidermidis CCM 4418 (ATCC 12228); experiment: Antibacterial microdilution broth (EUCAST); assay type: cell-based; conditions: Staphylococcus epidermidis; 24h incubation; read-out: MIC SE
[17] = test system: Aspergillus flavus CCM 8363; experiment: Antifungal microdilution broth (EUCAST); conditions: Aspergillus flavus, CCM8363, 24 h, read-out: MIC AFla
[18] = test system: Enterococcus faecalis CCM 4224 (ATCC 29212); experiment: Antibacterial microdilution broth (EUCAST); assay type: cell-based; conditions: Enterococcus faecalis; 24h incubation; read-out: MIC EF
[19] = test system: M. smegmatis DSM 43465 (ATCC 607); experiment: Antimycobacterial MIC, microdilution broth / resazurin; assay type: cell-based; conditions: Mycolicibacterium smegmatis, read-out: MIC M. smegmatis
[20] = test system: Candida parapsilosis CCM 8260 (ATCC 22019); experiment: Antifungal microdilution broth (EUCAST); conditions: Lodderomyces parapsilosis, 24 h, read-out: MIC CP
[21] = test system: Aspergillus fumigatus ATCC 204305; experiment: Antifungal microdilution broth (EUCAST); conditions: Aspergillus fumigatus, ATCC204305, 24 h, read-out: MIC AF

Compound | MIC [1] | MIC [2] | MIC [3] | MIC [5] | MIC [6] | MIC [7] | MIC [8] | MIC [9] | MIC [10] | MIC [11] | MIC [12] | MIC [14] | log k’w [15] | logkw [15] | MIC [16] | MIC [17] | melting point | MIC [18] | MIC [20] | MIC [21] | further results
O=C(Nc1ncco1)c1cnc(Cl)cn1 [Compound 9b] | 250 µM (≈ 56.2 µg/mL) | > 500 µM | > 500 µM | > 500 µM | > 500 µM | 250 µM (≈ 56.2 µg/mL) | 31.2 µg/mL (≈ 139 µM) | 62.5 µM (≈ 14 µg/mL) | 500 µM (≈ 112 µg/mL) | 15.6 µg/mL (≈ 69.6 µM) | > 500 µM | > 500 µM | 0.958 | 0.958 | > 500 µM | > 500 µM | 160 to 164 °C | > 500 µM | 500 µM (≈ 112 µg/mL) | 500 µM (≈ 112 µg/mL) | MIC ([4]; 96 h): 31.2 µg/mL (≈ 139 µM); MIC ([13]; resazurin after 96 h): < 3.91 µg/mL; MIC ([19]; resazurin after 48 h): 62.5 µg/mL (≈ 278 µM)
Cc1cc(C(=O)Nc2nc(-c3ccccc3)cs2)cc(Cl)n1 [Compound 16a] | > 125 µM | > 500 µM | > 125 µM | > 500 µM | > 500 µM | > 125 µM | 7.81 µg/mL (≈ 23.7 µM) | > 125 µM | > 125 µM | 15.6 µg/mL (≈ 47.4 µM) | > 500 µM | > 500 µM | 3.314 | 3.314 | > 500 µM | > 125 µM | 92 to 96 °C | > 500 µM | > 125 µM | > 125 µM | MIC ([4]; 96 h): 7.81 µg/mL (≈ 23.7 µM); MIC ([13]; resazurin after 96 h): 3.91 µg/mL (≈ 11.9 µM); MIC ([19]; 48 h): 7.81 µg/mL (≈ 23.7 µM)
Cc1cc(C(=O)Nc2nc(-c3ccccc3)co2)cc(Cl)n1 [Compound 16b] | > 125 µM | 62.5 µM (≈ 19.6 µg/mL) | > 125 µM | 62.5 µM (≈ 19.6 µg/mL) | > 125 µM | > 125 µM | 15.6 µg/mL (≈ 49.8 µM) | 62.5 µM (≈ 19.6 µg/mL) | > 125 µM | 7.81 µg/mL (≈ 24.9 µM) | > 125 µM | > 125 µM | 2.251 | 2.251 | 125 µM (≈ 39.2 µg/mL) | > 125 µM | 83 to 86 °C | > 125 µM | > 125 µM | > 125 µM | MIC ([4]; resazurin after 96 h): 7.81 µg/mL (≈ 24.9 µM); MIC ([13]; 96 h): 15.6 µg/mL (≈ 49.8 µM); MIC ([19]; resazurin after 48 h): 31.2 µg/mL (≈ 99.6 µM)
O=C(Nc1nc(-c2ccccc2)cs1)c1cnc2ccccc2n1 [Compound 19a] | > 125 µM | > 250 µM | > 125 µM | > 250 µM | > 250 µM | > 125 µM | ≥ 500 µg/mL | > 125 µM | > 125 µM | ≥ 500 µg/mL | > 250 µM | > 250 µM | 3.583 | 3.583 | > 250 µM | > 125 µM | 217 to 219 °C | > 250 µM | > 125 µM | > 125 µM | MIC ([4]; resazurin after 96 h): ≥ 500 µg/mL; MIC ([13]; resazurin after 96 h): ≥ 500 µg/mL; MIC ([19]; resazurin after 48 h): ≥ 500 µg/mL
O=C(Nc1nc(-c2ccccc2)co1)c1cnc2ccccc2n1 [Compound 19b] | > 125 µM | > 500 µM | > 125 µM | > 500 µM | > 500 µM | > 125 µM | ≥ 500 µg/mL | > 125 µM | > 125 µM | ≥ 500 µg/mL | > 500 µM | > 500 µM | 2.465 | 2.465 | > 500 µM | > 125 µM | 181 to 183 °C | > 500 µM | > 125 µM | > 125 µM | MIC ([4]; resazurin after 96 h): 7.81 µg/mL (≈ 24.7 µM); MIC M. avium ([4]; resazurin after 96 h): strongly active; MIC ([13]; resazurin after 96 h): 3.91 µg/mL (≈ 12.4 µM); MIC ([19]; resazurin after 48 h): ≥ 500 µg/mL
